Experiments:
Type in all cases: cell-based
[1] = tested on: VEGF stimulated Phospho-ERK in HUVEC; experiment: Growth factor stimulated p-ERK assay in HUVECs (VEGF stimulation, ERK1/2 Bioplex); conditions: Homo sapiens, compound 2 hrs, then 50 ng/ml VEGF 10 min; for inhibition at 0.1 µM: @ 100 nM
Experimental: Growth Factor Stimulated p-ERK assay in HUVECs
Exponentially growing human endothelial HUVECs cells (human umbilical vein endothelial cells, cat# CC-2517, Cambrex, Walkersville, Md.) were seeded at twenty five thousand cells/well in 96 well plates in EBM-2 MV medium with growth factors (cat# CC-3202, Cambrex) and grown at 37° C. in 5% CO2. Sixteen hours post-plating, the cells were changed to serum-free medium (RPMI 1640 containing 0.1% BSA (bovine serum albumin) and compounds were added at different concentrations for 2 hrs, after which the cells were stimulated for 10 min with 50 ng/ml of either VEGF (vascular endothelial growth factor, Protein Sciences, Meriden, Conn.) or bFGF (basic fibroblast growth factor cat# PHG0026, Biosource International, Camarillo, Calif.). The rest of the assay was performed per manufacturer indications for the ERK½ Bioplex assay (cat#171-304004, Bio-Rad, Hercules, Calif.). After removing culture medium by aspiration, the cells were quickly rinsed with 100 μl of cell wash buffer A to stop treatment reaction. Eighty microliters of cell lysis buffer were then immediately added to each well of the 96 well plate which was put on ice. Cells in each well were lysed by pipetting up and down 5 times with a multi-channel pipet. The plate was then agitated on a microtiter plate shaker at 300 rpm for 20 min at 4° C. Cellular debris were pelleted by centrifugation at 4500 g for 15 min at 4° C. and the supernatant was collected. Forty five microliters of supernatant was diluted with an equal volume of Bio-Plex phosphoprotein assay Buffer B, The coupled and color coated beads were added into a 96 well filter plate, and the prepared lysates were added. The beads and lysate mixture was incubated at room temperature for 15-18 hrs. The following day, the plate was vacuum-filtered and then washed 3×. Twenty-five microliters of detection antibody solution were added to each well and the plate was then incubated for 30 min at room temperature. The plate was then vaccum-filtered and washed as described previously. Fifty microliters of streptavidin-PE solution was added to each well, the plate was incubated for 10 min at room temperature and then was then vaccum-filtered and washed as described above. One hundred twenty-five microliters of resuspension buffer was added to each well and data were acquired on the Luminex 100 instrument (Bio-Rad).

[2] = tested on: VEGFR stimulated HUVEC proliferation; experiment: BRDU growth factor stimulated proliferation of HUVEC (VEGF stimulation); conditions: Homo sapiens, 72 h, 80 ng/ml VEGF, 3 days, BrdU incorporation
Experimental: (§1) BRDU Growth Factor Stimulated Proliferation of HUVEC
(§2) Exponentially growing human umbilical vein endothelial cells (HUVEC; Cat# CC-2519A, Cambrex, Walkersville, Md.) were seeded at two thousand cells/well into Collagen IV-coated 96 well plates (Cat#35-4429, Becton Dickinson, Bedford, Mass.) in assay media containing RPMI-1640 (Cat#11875-093, Gibco, Carlsbad, Calif.), 0.5% charcoal-stripped serum (Cat# SH30068.03, HyClone, Logan, Utah), and 1% N-2 supplement (Cat#17502-048, Gibco, Carlsbad, Calif.). Fours hours after incubating the plates at 37° C. in 5% CO2, the cells were treated with different concentrations of compound (diluted in assay media with a final DMSO concentration=0.1%) and then were immediately stimulated with 80 ng/ml of vascular endothelial growth factor (VEGF, Cat#100-20, PeproTech, Rocky Hill, N.J.) or 1.5 ng/ml of basic fibroblast growth factor (bFGF, Catt#100-18B, PeproTech, Rocky Hill, N.J.). Treated cells were incubated for 3 days at 37° C. in 5% CO2. DNA synthesis was measured via the incorporation of bromodeoxyuridine (BrdU) into newly synthesized DNA using the Amersham Cell Proliferation BioTrack ELISA system (Cat# RPN250, Amersham, Piscataway, N.J.). Diluted BrdU solution (20 μl of stock BrdU diluted 1:20 fold into assay media) was added to each well and incubation proceeded for 6 hours at 37° C. in 5% CO2. The media was removed and the cells were fixed according to the specifications of the Amersham assay kit for 30 minutes at room temperature. After removing the fixative, blocking buffer (supplied by Amersham kit; 200 μl/well) was added and the plates were stored at 4° C. overnight. The blocking buffer was aspirated and peroxidase-labeled anti-BrdU antibody (supplied by Amersham kit; 100 μl/well) was added and incubated for 3 hours at room temperature. The plates were washed three times with wash buffer (supplied by Amersham kit; 300 μl/well/wash). Immediately following the washes, 100 μl of the TMB-substrate was dispensed into each well and the plates were further incubated for 30 minutes at room temperature. The reaction was terminated by the addition of 25 μl of 1M H2SO4. Plates were read immediately at 450 nm using a SpectraMAX 250 spectrophotometer plate reader (Molecular Devices, Sunnyvale, Calif.). The software utilized was SoftMAX pro v.2.4.1.

[3] = tested on: FGFR stimulated HUVEC proliferation; experiment: BRDU growth factor stimulated proliferation of HUVEC (bFGF stimulation); conditions: Homo sapiens, 72 h, 1.5 ng/ml bFGF, 3 days, BrdU incorporation
Experimental: as §1, §2

HCT116 cells = experiment: Tumor cell proliferation (Alamar Blue), HCT116; conditions: Homo sapiens, HCT-116, 72 h
How it was run: (§3)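 Cells seeded at 3.0×10^3/well in RPMI with 10% FBS for 16 h, then treated with compound (added medium held 40 μM to 18 nM compound, 0.4% DMSO) for 72 h at 37 °C, 5% CO2. Viability by Alamar Blue, 3 h, fluorescence 544/590 nm. IC50 by linear regression of log concentration versus percent inhibition.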

MDA-MB-231 cells = experiment: Tumor cell proliferation (Alamar Blue), MDA-MB-231; conditions: Homo sapiens, MDA-MB-231, 72 h
How it was run: as §3

SMILES	inhibition at 0.1 µM [1]	IC50 [2]	IC50 [3]	IC50 (HCT116 cells; bounds given in μM)	inhibition at 1 µM [1]	IC50 (HCT116 cells)	IC50 (MDA-MB-231 cells)	IC50 (MDA-MB-231 cells; bounds given in μM)	IC50 ([2]; bound given in μM)
Nc1ncnn2cc(CN3CCOCC3)c(-c3ccc(NC(=O)Nc4cc(C(F)(F)F)ccc4F)cc3)c12 [Example 30, N-{4-[4-amino-6-(morpholin-4-ylmethyl)pyrrolo[2,1-f][1,2,4]triazin-5-yl]phenyl}-N′-[2-fluoro-5-(trifluoromethyl)phenyl]urea]	> 50%	0.1 to 0.5 µM	100 to 500 nM	1.5 to 5 µM	–	–	–	–	–
Nc1ncnn2cc(C(=O)NCC(F)(F)F)c(-c3ccc(NC(=O)Nc4cc(C(F)(F)F)ccn4)cc3)c12 [Example 93, 4-amino-N-(2,2,2-trifluoroethyl)-5-{4-[({[4-(trifluoromethyl)pyridin-2-yl]amino}carbonyl)amino]phenyl}pyrrolo[2,1-f][1,2,4]triazine-6-carboxamide]	< 50%	–	–	–	> 50%	< 0.5 µM	> 0.5 µM	< 1.5 µM	–
COCc1cn2ncnc(N)c2c1-c1ccc(NC(=O)Nc2cc(C(F)(F)F)ccc2F)cc1 [Example 100, N-{4-[4-amino-6-(methoxymethyl)pyrrolo[2,1-f][1,2,4]triazin-5-yl]phenyl}-N′-[2-fluoro-5-(trifluoromethyl)phenyl]urea]	< 50%	> 0.5 µM	–	1.5 to 5 µM	> 50%	–	–	1.5 to 5 µM	< 2 µM
COCc1cn2ncnc(N)c2c1-c1ccc(NC(=O)Nc2cc(C(F)(F)F)ccn2)cc1 [Example 101, N-{4-[4-amino-6-(methoxymethyl)pyrrolo[2,1-f][1,2,4]triazin-5-yl]phenyl}-N′-[4-(trifluoromethyl)pyridin-2-yl]urea]	–	< 0.01 µM	< 100 nM	–	–	–	–	–	–
COCc1cn2ncnc(N)c2c1-c1ccc(NC(=O)Nc2cc(F)cc(C(F)(F)F)c2)cc1 [Example 102, N-{4-[4-amino-6-(methoxymethyl)pyrrolo[2,1-f][1,2,4]triazin-5-yl]phenyl}-N′-[3-fluoro-5-(trifluoromethyl)phenyl]urea]	–	0.1 to 0.5 µM	100 to 500 nM	1.5 to 5 µM	–	–	–	5 to 10 µM	–
N#Cc1cn2ncnc(N)c2c1-c1ccc(NC(=O)Nc2cc(F)cc(C(F)(F)F)c2)cc1 [Example 103, N-[4-(4-amino-6-cyanopyrrolo[2,1-f][1,2,4]triazin-5-yl)phenyl]-N′-[3-fluoro-5-(trifluoromethyl)phenyl]urea]	–	0.01 to 0.1 µM	< 100 nM	5 to 10 µM	–	–	–	5 to 10 µM	–
N#Cc1cn2ncnc(N)c2c1-c1ccc(NC(=O)Nc2ccc(F)c(C(F)(F)F)c2)cc1 [Example 151, N-[4-(4-amino-6-cyanopyrrolo[2,1-f][1,2,4]triazin-5-yl)phenyl]-N′-[4-fluoro-3-(trifluoromethyl)phenyl]urea]	–	0.01 to 0.1 µM	< 100 nM	–	–	–	–	–	–
N#Cc1cn2ncnc(N)c2c1-c1ccc(NC(=O)Nc2cccc(OC(F)(F)F)c2)cc1 [Example 152, N-[4-(4-amino-6-cyanopyrrolo[2,1-f][1,2,4]triazin-5-yl)phenyl]-N′-[3-(trifluoromethoxy)phenyl]urea]	–	0.1 to 0.5 µM	100 to 500 nM	–	–	–	–	–	–
Nc1ncnn2cc(-c3cnco3)c(-c3ccc(NC(=O)Nc4cc(C(F)(F)F)ccc4F)cc3)c12 [Example 155, N-{4-[4-amino-6-(1,3-oxazol-5-yl)pyrrolo[2,1-f][1,2,4]triazin-5-yl]phenyl}-N′-[2-fluoro-5-(trifluoromethyl)phenyl]urea]	–	0.01 to 0.1 µM	100 to 500 nM	–	–	< 0.5 µM	< 0.5 µM	–	–
COCCOCc1cn2ncnc(N)c2c1-c1ccc(NC(=O)Nc2cc(C(F)(F)F)ccc2F)cc1 [Example 157, N-(4-{4-amino-6-[(2-methoxyethoxy)methyl]pyrrolo[2,1-f][1,2,4]triazin-5-yl}phenyl)-N′-[2-fluoro-5-(trifluoromethyl)phenyl]urea]	–	0.01 to 0.1 µM	100 to 500 nM	1.5 to 5 µM	–	–	–	1.5 to 5 µM	–
Nc1ncnn2cc(-c3cnco3)c(-c3ccc(NC(=O)Nc4cc(F)cc(C(F)(F)F)c4)cc3)c12 [Example 159, N-{4-[4-amino-6-(1,3-oxazol-5-yl)pyrrolo[2,1-f][1,2,4]triazin-5-yl]phenyl}-N′-[3-fluoro-5-(trifluoromethyl)phenyl]urea]	–	0.01 to 0.1 µM	100 to 500 nM	< 1.5 µM	–	> 0.5 µM	> 0.5 µM	< 1.5 µM	–
Nc1ncnn2cc(-c3cnco3)c(-c3ccc(NC(=O)Nc4ccc(F)c(C(F)(F)F)c4)cc3)c12 [Example 162, N-{4-[4-amino-6-(1,3-oxazol-5-yl)pyrrolo[2,1-f][1,2,4]triazin-5-yl]phenyl}-N′-[4-fluoro-3-(trifluoromethyl)phenyl]urea]	–	0.01 to 0.1 µM	100 to 500 nM	< 1.5 µM	–	> 0.5 µM	–	1.5 to 5 µM	–
Nc1ncnn2cc(-c3nnco3)c(-c3ccc(NC(=O)Nc4cc(C(F)(F)F)ccc4F)cc3)c12 [Example 163, N-{4-[4-amino-6-(1,3,4-oxadiazol-2-yl)pyrrolo[2,1-f][1,2,4]triazin-5-yl]phenyl}-N′-[2-fluoro-5-(trifluoromethyl)phenyl]urea]	–	> 0.5 µM	–	1.5 to 5 µM	–	–	–	1.5 to 5 µM	< 2 µM
CCOCc1cn2ncnc(N)c2c1-c1ccc(NC(=O)Nc2cc(C(F)(F)F)ccn2)cc1 [Example 218, N-{4-[4-amino-6-(ethoxymethyl)pyrrolo[2,1-f][1,2,4]triazin-5-yl]phenyl}-N′-[4-(trifluoromethyl)pyridine-2-yl]urea]	–	< 0.01 µM	100 to 500 nM	5 to 10 µM	–	–	–	5 to 10 µM	–
CC(=O)c1cn2ncnc(N)c2c1-c1ccc(NC(=O)Nc2cc(C(F)(F)F)ccc2F)cc1 [Example 223, N-[4-(6-acetyl-4-aminopyrrolo[2,1-f][1,2,4]triazin-5-yl)phenyl]-N′-[2-fluoro-5-(trifluoromethyl)phenyl]urea]	–	0.01 to 0.1 µM	< 100 nM	< 1.5 µM	–	> 0.5 µM	> 0.5 µM	< 1.5 µM	–

Source: US7563791B2, “Pyrrolotriazine derivatives useful for treating hyper-proliferative disorders and diseases associated with angiogenesis” (Bayer Pharmaceuticals Corporation, priority 2004, dated 2009)
